Two compounds from patent US12497597B2, “Methods of generating and expanding hematopoietic stem cells” (CHILDREN'S HOSPITAL MEDICAL CENTER, priority 2019, dated 2025) can be followed below.

Test [1] has as its system Notch activity. As to the kind of experiment: Notch inhibition in organoid cultures with the γ-secretase inhibitor DAPT. It is filed as cell-based, human.
Test [2] concerns liver organoid cultures. Put plainly: Notch dependency test: DLL4 added to Matrigel drops of liver organoid culture with hematopoietic cytokines. In kind it is cell-based, human. The protocol: Day 7 spheroids were collected by manual pipetting and pelleted by centrifugation. Media was aspirated and cells were embedded in 100% Matrigel by gentle pipetting to homogenize the cell pellet. Optionally, a Notch activator or ligand is added to the Matrigel (e.g. 10 μg/mL, of […]). Alternatively, optionally, UCB cells are added to the Matrigel for co-culture with organoids (e.g. 1,000 UCB cells per 75 μL of Matrigel). 250 μL Matrigel (Corning) was used per well of a 24-well plate of definitive endoderm culture. 75 μL Matrigel drops were made, 1 drop per each well of a fresh 24-well plate (VWR). The plates were placed at 37° C. in an atmosphere of 5% CO2/95% air for 5-15 minutes. After the Matrigel was solidified, Advanced DMEM/F12 with 1×B27, 1×N2, 2 mM L-glutamine, 15 mM HEPES, and 1× penicillin/streptomycin was added to the wells. This media was supplemented with 20 ng/mL BMP4 and 10 ng/mL, FGF2 for 4 days, and then the BMP4 and FGF2 were removed.
Organoids were isolated from Matrigel drops and washed with 1×PBS. HLOs were dissociated to single cells by treatment with Trypsin-EDTA (0.05%, with phenol red, Gibco) for 10 minutes. Cells were washed in DMEM/F12 with 10% FBS and suspended in PBS with 2% FBS. After filtration (e.g. through a 40-50 μm nylon filter), the single cells were subjected to flow cytometry with the following antibodies: anti-CD45-APC (Miltenyl, 130-098-143), anti-CD34-APC/Cy7 (BioLegend, 343513), anti-CD11b-PE/Cy7 (BioLegend, 301322), anti-CD19-BV421 (BioLegend, 302233), anti-CD27-AF700 (BioLegend, 356415), anti-CD43-FITC (BioLegend, 315204). For mouse engraftment experiments, anti-mouse CD45-BV421 (BioLegend, 103133) was used.
RNA was isolated using the RNeasy mini kit (Qiagen). Reverse transcription was carried out using the High-Capacity cDNA. Reverse Transcription Kit (Thermo Fisher) according to manufacturer's protocol. qPCR was carried out in duplicate using TagMan Gene Expression Master Mix (Applied Biosystems) and probes from the Universal Probe Library (Roche) on a QuantStudio 3 Real-Time PCR System (Thermo Fisher). […]

For `C[C@H](NC(=O)Cc1cc(F)cc(F)c1)C(=O)N[C@H](C(=O)OC(C)(C)C)c1ccccc1` [DAPT], the HES1 expression entry in test [1] (different concentrations of DAPT, 4 days of treatment from day 6, FIG. 10C) is on record as “decrease”. The albumin expression entry in test [1] (different concentrations of DAPT, 4 days of treatment from day 6, FIG. 10D) is “maintaining albumin expression”. Also, the visible erythrocytes result in test [1] (light microscopy, 100 μM DAPT vs DMSO control, 12 days of treatment, FIG. 10A) is on record as “decrease in visible erythrocytes”.

Regarding “DLL4: Notch ligand added to the Matrigel drops during organoid seeding”, in test [2] (DLL4 1-10 μg/mL in Matrigel drops at organoid seeding, medium with IL-3, IL-34, GM-CSF 100 ng/mL each, FIG. 8), the “production of CD45+ hematopoietic cells” value was “increased the efficiency of cytokines in producing CD45^+ hematopoietic cells”. Further, the IL-6 expression entry in test [2] (qPCR, organoids at day 18, DLL4 plus cytokines IL-3, IL-34, GM-CSF, FIG. 9A) was “significant increase”. In test [2] (qPCR, organoids at day 18, DLL4 plus cytokines IL-3, IL-34, GM-CSF, FIG. 9B), the albumin expression entry is “modest decrease”.
